Laboratory results as given in article PMC9124600 (Medical Oncology (Northwood, London, England), 2022).

Molecular target: T1, MASTL kinase (Microtubule-associated serine/threonine kinase-like; Great wall kinase) (Homo sapiens, UniProt Q96GX5)
T1 sequence (Q96GX5 1-879): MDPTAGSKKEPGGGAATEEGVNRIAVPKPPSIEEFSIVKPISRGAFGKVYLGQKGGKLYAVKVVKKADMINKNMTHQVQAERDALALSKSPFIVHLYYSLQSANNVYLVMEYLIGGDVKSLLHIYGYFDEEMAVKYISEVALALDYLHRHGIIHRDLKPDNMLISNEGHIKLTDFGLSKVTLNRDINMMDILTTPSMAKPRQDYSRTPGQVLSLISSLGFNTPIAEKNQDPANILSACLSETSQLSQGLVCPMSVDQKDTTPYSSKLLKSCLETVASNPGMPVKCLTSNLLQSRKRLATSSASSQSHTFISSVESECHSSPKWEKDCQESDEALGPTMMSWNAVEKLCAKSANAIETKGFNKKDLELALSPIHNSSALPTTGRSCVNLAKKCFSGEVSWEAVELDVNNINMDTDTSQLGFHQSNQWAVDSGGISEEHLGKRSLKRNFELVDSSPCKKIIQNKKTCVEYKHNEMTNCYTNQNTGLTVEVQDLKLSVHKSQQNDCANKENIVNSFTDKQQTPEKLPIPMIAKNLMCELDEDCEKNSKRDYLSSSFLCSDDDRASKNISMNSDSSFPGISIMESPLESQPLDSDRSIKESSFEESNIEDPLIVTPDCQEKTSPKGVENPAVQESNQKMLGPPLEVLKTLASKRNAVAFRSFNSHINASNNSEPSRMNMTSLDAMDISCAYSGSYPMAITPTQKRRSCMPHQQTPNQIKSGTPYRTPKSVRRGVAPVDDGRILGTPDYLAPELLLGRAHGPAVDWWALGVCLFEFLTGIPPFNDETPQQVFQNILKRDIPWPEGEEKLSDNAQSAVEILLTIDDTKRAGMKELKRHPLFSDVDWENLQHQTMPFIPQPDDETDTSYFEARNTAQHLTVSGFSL
Assay: ADP-Glo luminescent in vitro kinase assay
Type: biochemical

SMILES	EC50 [µM]
Cn1cc(C2=C(c3cn(C4CCN(Cc5ccccn5)CC4)c4ccccc34)C(=O)NC2=O)c2ccccc21 [Enzastaurin]	17.1
CC(=O)c1c(C)c2cnc(Nc3ccc(N4CCNCC4)cn3)nc2n(C2CCCC2)c1=O [Palbociclib]	10.5
